The record followed here is patent US8530490B2, “Uracil compound or salt thereof having human deoxyuridine triphosphatase inhibitory activity” (Taiho Pharmaceutical Co., Ltd., priority 2008, dated 2013).

This experiment addresses human dUTPase (Homo sapiens (Human), UniProt P33316). The experiment can be described thus: Human dUTPase inhibitory effect: production of [5-3H]dUMP from [5-3H]dUTP, measured by HPLC with flow scintillation. The format is biochemical. To be noted: [5-3H]dUMP production from [5-3H]dUTP, 37° C., 15 minutes. As to the method: The inhibitory activity of the compound of the present invention against human dUTPase was determined by measuring the production of [5-^3H]deoxyuridine monophosphate (hereinafter, referred to as [5-^3H]dUMP) from [5-^3H]deoxyuridine triphosphate (hereinafter, referred to as [5-^3H]dUTP) according to a method shown below.
Specifically, 0.2 mL in total of a solution containing 0.02 mL of 1 μM dUTP (including 588 Bq/mL [5-3H]dUTP), 0.05 mL of a 0.2 M Tris buffer solution (pH 7.4), 0.05 mL of 16 mM magnesium chloride, 0.02 mL of 20 mM 2-mercaptoethanol, 0.02 mL of a 1% aqueous solution of fetal bovine serum-derived albumin, 0.02 mL of varying concentrations of test compound solutions or pure water as a control, and 0.02 mL of a solution of human dUTPase (expressed using E. coli and purified) was reacted at 37° C. for 15 minutes. Immediately after the reaction, the solution was heated at 100° C. for 1 minute to terminate the reaction, followed by centrifugation at 15000 rpm for 2 minutes. An aliquot (150 μL) of the supernatant thus obtained by centrifugation was analyzed using an Atlantis dC18 column (manufactured by Waters Corp., 4.6×250 mm) and a high-performance liquid chromatograph (manufactured by Shimadzu Corp., Prominence). Elution was performed at a flow rate of 0.8 mL/min for 30 minutes by a concentration gradient from a 4:6 mixed solution of a mobile phase A (10 mM potassium dihydrogen phosphate (pH 6.7), 10 mM tetrabutylammonium, and 0.25% methanol) and a mobile phase B (50 mM potassium dihydrogen phosphate (pH 6.7), 5.6 mM tetrabutylammonium, and 30% methanol) to the mobile phase B. The eluate was mixed with a scintillator (manufactured by PerkinElmer Co., Ltd., Ultima-Flo AP) at a 1:2 ratio, and the radioactivity of the produced [5-^3H]dUMP (RT 10.2 min) was measured using Radiomatic Flow Scintillation Analyzer (manufactured by PerkinElmer Co., Ltd., 525TR).
The inhibitory activity of the test compound was determined according to the formula shown below.

Chain of human dUTPase (P33316 94-252): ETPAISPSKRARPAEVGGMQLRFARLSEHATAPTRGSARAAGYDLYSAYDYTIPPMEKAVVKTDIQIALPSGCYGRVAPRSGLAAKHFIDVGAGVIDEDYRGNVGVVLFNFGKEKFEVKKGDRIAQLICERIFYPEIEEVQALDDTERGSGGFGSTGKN

As a reminder, the IC50 is the point on the concentration scale where inhibition reaches its midpoint. A high value points to lower potency. In turn, `C[C@@H](NS(=O)(=O)CCCOCn1ccc(=O)[nH]c1=O)c1cccc(OC2CCOCC2)c1` [Example 47, (R)-3-((2,4-dioxo-3,4-dihydropyrimidin-1(2H)-yl)methoxy)-N-(1-(3-(tetrahydro-2H-pyran-4-yloxy)phenyl)ethyl)propane-1-sulfonamide] registered an IC50 of 210 nM. Take `C[C@@H](NS(=O)(=O)CCCOCn1ccc(=O)[nH]c1=O)c1ccc(F)c(OC2CCOCC2)c1` [Example 48, (R)-3-((2,4-dioxo-3,4-dihydropyrimidin-1(2H)-yl)methoxy)-N-(1-(4-fluoro-3-(tetrahydro-2H-pyran-4-yloxy)phenyl)ethyl)propane-1-sulfonamide]: half-maximal inhibition (IC50) was put at 140 nM. The compound `C[C@@H](NS(=O)(=O)CCCOCn1ccc(=O)[nH]c1=O)c1cccc(O[C@H]2CCOC2)c1` [Example 49, 3-((2,4-dioxo-3,4-dihydropyrimidin-1(2H)-yl)methoxy)-N—((R)-1-(3-((S)-tetrahydrofuran-3-yloxy)phenyl)ethyl)propane-1-sulfonamide] yielded a half-inhibitory concentration (IC50) of 940 nM. With `C[C@@H](NS(=O)(=O)CCCOCn1ccc(=O)[nH]c1=O)c1cccc(OC(F)(F)C(F)F)c1` [Example 51, (R)-3-((2,4-dioxo-3,4-dihydropyrimidin-1(2H)-yl)methoxy)-N-(1-(3-(1,1,2,2-tetrafluoroethoxy)phenyl)ethyl)propane-1-sulfonamide] the figure was 830 nM; with `C[C@@H](NS(=O)(=O)CCCOCn1ccc(=O)[nH]c1=O)c1cccc(OCC(C)(C)C)c1` [Example 52, (R)-3-((2,4-dioxo-3,4-dihydropyrimidin-1(2H)-yl)methoxy)-N-(1-(3-(neopentyloxy)phenyl)ethyl)propane-1-sulfonamide], 510 nM; with `C[C@@H](NS(=O)(=O)CCCOCn1ccc(=O)[nH]c1=O)c1cccc(OCC(F)(F)F)c1` [Example 53, (R)-3-((2,4-dioxo-3,4-dihydropyrimidin-1(2H)-yl)methoxy)-N-(1-(3-(2,2,2-trifluoroethoxy)phenyl)ethyl)propane-1-sulfonamide], 230 nM. Then `C[C@@H](NS(=O)(=O)CCCOCn1ccc(=O)[nH]c1=O)c1ccc(F)c(OCC(F)(F)F)c1` [Example 54, (R)-3-((2,4-dioxo-3,4-dihydropyrimidin-1(2H)-yl)methoxy)-N-(1-(4-fluoro-3-(2,2,2-trifluoroethoxy)phenyl)ethyl)propane-1-sulfonamide], with 230 nM; and `C[C@@H](NS(=O)(=O)CCCOCn1ccc(=O)[nH]c1=O)c1cccc(OC(F)(F)C(F)(F)F)c1` [Example 55, (R)-3-((2,4-dioxo-3,4-dihydropyrimidin-1(2H)-yl)methoxy)-N-(1-(3-(perfluoroethoxy)phenyl)ethyl)propane-1-sulfonamide], with 410 nM.

For `C[C@@H](NS(=O)(=O)CCCOCn1ccc(=O)[nH]c1=O)c1cccc(OC(CF)CF)c1` [Example 56, (R)—N-(1-(3-(1,3-difluoropropan-2-yloxy)phenyl)ethyl)-3-((2,4-dioxo-3,4-dihydropyrimidin-1(2H)-yl)methoxy)propane-1-sulfonamide], it took 850 nM to reach half-maximal inhibition (IC50). With `C#CCOc1cccc([C@@H](C)NS(=O)(=O)CCCOCn2ccc(=O)[nH]c2=O)c1` [Example 57, (R)-3-((2,4-dioxo-3,4-dihydropyrimidin-1(2H)-yl)methoxy)-N-(1-(3-(prop-2-ynyloxy)phenyl)ethyl)propane-1-sulfonamide] the figure was 1180 nM; with `CC(C)COc1cccc([C@@H](C)NS(=O)(=O)CCCOCn2ccc(=O)[nH]c2=O)c1` [Example 58, (R)-3-((2,4-dioxo-3,4-dihydropyrimidin-1(2H)-yl)methoxy)-N-(1-(3-isobutoxyphenyl)ethyl)propane-1-sulfonamide], 310 nM. Then `CC[C@H](C)COc1cccc([C@@H](C)NS(=O)(=O)CCCOCn2ccc(=O)[nH]c2=O)c1` [Example 59, 3-((2,4-dioxo-3,4-dihydropyrimidin-1(2H)-yl)methoxy)-N—((R)-1-(3-((S)-2-methylbutoxy)phenyl)ethyl)propane-1-sulfonamide], with 720 nM.
